On the set-up of data set [1]: species or system human. Conditions: pooled urine of children aged 3-6; tentative, exact mass match.
The conditions of data set [2]: gavage of a technical mixture containing 35% 2IPPDPP; cited from earlier work.
For data set [3] the following is noted: linear regression.
For data set [4] the following is noted: for % Depletion: after 60 min (Eq. 1); for Percentage of Initial Parent Administration (Mean ± Std Dev): Total: parents plus quantified metabolites; for Initial parent mass unaccounted for after quantifying suspected metabolites: metabolites with authentic standards available.
For data set [5] the following is noted: cited from earlier work.
[6] abbreviates: 1 μM, s9 & sulfatase & glucuronidase.
Setting [7] is: 10 μM, s9 & sulfatase & glucuronidase.

Where two headings read alike, the source gives them in different places. Marks after values point to notes of the source that are not given here.

Regarding “2-phenyl-4H,−4,4-dimethyl-1,1,3,2 -benzodioxapho-sphoran-2-oxide”, the “Detection in human urine samples (number of samples out of 9)” value (shortened to “Detection in human urine samples”) in data set [1] worked out at 1. Further, in data set [2], the “Detection in rabbit bile” value is listed as “detected”.

Regarding `CC(C)c1ccccc1OP(=O)(Oc1ccccc1)Oc1ccccc1` [2IPPDPP, 2-isopropylphenyl diphenyl phosphate], the “Depletion rate, slope, first-order kinetics” value in data set [3] (1 μM dose) is −0.010 ln[nmol]/min/mg protein; in data set [3] (10 μM dose) it was −0.0048 ln[nmol]/min/mg protein. Moreover, the “Depletion rate, slope, zero-order kinetics” value was −0.013 ^* nmol/min/mg protein in data set [3] (1 μM dose) and −0.092 nmol/min/mg protein in data set [3] (10 μM dose). Further, the “Percentage of Initial Parent Administration (Mean ± Std Dev): parent compound” value (“Percentage … parent compound” below) is listed as 105 ± 20% in data set [4] (1 μM, Abiotic Control); 101 ± 8% in data set [4] (1 μM, Heat-inactivated s9); 56 ± 10% in data set [4] (1 μM, s9); 65 ± 3% in data set [4] (1 μM, s9 & glucuronidase); 64 ± 6% in data set [4] (1 μM, s9 & sulfatase); 67 ± 4% in data set [4] (setting [6]). Besides, the “Percentage … parent compound” value in data set [4] (1 μM, unprocessed spike) is recorded as 100 ± 13%; in data set [4] (10 μM, Abiotic Control), 103 ± 10%; in data set [4] (10 μM, Heat-inactivated s9) it was 103 ± 11%; in data set [4] (10 μM, s9), 77 ± 5%; in data set [4] (10 μM, s9 & glucuronidase), 82 ± 3%; in data set [4] (setting [7]) it was 84 ± 4%. The “Percentage … parent compound” value in data set [4] (10 μM, unprocessed spike) is on record as 100 ± 9%. Also, the “% Depletion” value came to 0% in data set [4] (1 μM, Abiotic Control); 0% in data set [4] (1 μM, Heat-inactivated s9); 35% in data set [4] (1 μM, s9 & glucuronidase); 33% in data set [4] (setting [6]); 36% in data set [4] (1 μM, s9 & sulfatase); 44% in data set [4] (1 μM, s9). Besides, the “% Depletion” value in data set [4] (10 μM, Abiotic Control) was 0%; in data set [4] (10 μM, Heat-inactivated s9) it was 0%; in data set [4] (10 μM, s9 & glucuronidase), 18%; in data set [4] (setting [7]) it was 16%; in data set [4] (10 μM, s9 & sulfatase), 20%; in data set [4] (10 μM, s9), 23%. Further, in data set [4] (1 μM, unprocessed spike), the “Percentage of Initial Parent Administration (Mean ± Std Dev): Total” value (from here on “Percentage … Total”) turned out to be 100 ± 13%. Also, the “Initial parent mass unaccounted for after quantifying suspected metabolites” value in data set [4] is on record as “approximately 20%”.

`CC(C)c1ccc(OP(=O)(Oc2ccccc2)Oc2ccccc2)cc1` [4IPPDPP, 4-isopropylphenyl diphenyl phosphate]: the figures for the “Depletion rate, slope, first-order kinetics” value in data set [3] (1 μM dose) and in data set [3] (10 μM dose) were −0.015 ln[nmol]/min/mg protein and −0.0034 ln[nmol]/min/mg protein, respectively. For the same compound, the figures for the “Depletion rate, slope, zero-order kinetics” value in data set [3] (1 μM dose) and in data set [3] (10 μM dose) were −0.042 nmol/min/mg protein and −0.097 nmol/min/mg protein, respectively. The “Percentage … parent compound” value in data set [4] (1 μM, Abiotic Control) is reported as 108 ± 23%; in data set [4] (1 μM, Heat-inactivated s9), 82 ± 5%; in data set [4] (1 μM, s9), 27 ± 4%; in data set [4] (1 μM, s9 & glucuronidase), 27 ± 1%; in data set [4] (1 μM, s9 & sulfatase), 29 ± 3%; in data set [4] (setting [6]), 32 ± 3%. Besides, the “Percentage … parent compound” value in data set [4] (1 μM, unprocessed spike) is on record as 100 ± 2%; in data set [4] (10 μM, Abiotic Control), 94 ± 6%; in data set [4] (10 μM, Heat-inactivated s9), 97 ± 10%; in data set [4] (10 μM, s9), 55 ± 3%; in data set [4] (10 μM, s9 & glucuronidase), 57 ± 2%; in data set [4] (10 μM, s9 & sulfatase), 54 ± 1%. The “Percentage … parent compound” value in data set [4] (setting [7]) came to 55 ± 4%; in data set [4] (10 μM, unprocessed spike), 100 ± 3%. For the same compound, the “% Depletion” value was 0% in data set [4] (1 μM, Abiotic Control); 18% in data set [4] (1 μM, Heat-inactivated s9); 73% in data set [4] (1 μM, s9 & glucuronidase); 68% in data set [4] (setting [6]); 71% in data set [4] (1 μM, s9 & sulfatase); 73% in data set [4] (1 μM, s9). In addition, the “% Depletion” value in data set [4] (10 μM, Abiotic Control) is recorded as 6%; in data set [4] (10 μM, Heat-inactivated s9), 3%; in data set [4] (10 μM, s9 & glucuronidase), 43%; in data set [4] (setting [7]), 45%; in data set [4] (10 μM, s9 & sulfatase) it was 46%; in data set [4] (10 μM, s9), 45%. In addition, in data set [4] (1 μM, unprocessed spike), the “Percentage … Total” value is recorded as 100 ± 13%. The “Initial parent mass unaccounted for after quantifying suspected metabolites” value in data set [4] is “approximately 20%”.

`CC(C)(C)c1ccc(OP(=O)(Oc2ccccc2)Oc2ccccc2)cc1` [4tBPDPP, 4-tert-butylphenyl diphenyl phosphate]: the “Depletion rate, slope, first-order kinetics” value in data set [3] (1 μM dose) is −0.013 ln[nmol]/min/mg protein; in data set [3] (10 μM dose) it was −0.0013 ln[nmol]/min/mg protein. Besides, the “Depletion rate, slope, zero-order kinetics” value in data set [3] (1 μM dose) is −0.031 nmol/min/mg protein; in data set [3] (10 μM dose), −0.082 nmol/min/mg protein. For the same compound, the “Percentage … parent compound” value in data set [4] (1 μM, Abiotic Control) stood at 84 ± 8%; in data set [4] (1 μM, Heat-inactivated s9) it was 81 ± 6%; in data set [4] (1 μM, s9) it was 59 ± 11%; in data set [4] (1 μM, s9 & glucuronidase), 56 ± 5%; in data set [4] (1 μM, s9 & sulfatase), 61 ± 5%; in data set [4] (setting [6]), 60 ± 6%. Besides, the “Percentage … parent compound” value in data set [4] (1 μM, unprocessed spike) stood at 92 ± 4%; in data set [4] (10 μM, Abiotic Control) it was 81 ± 1%; in data set [4] (10 μM, Heat-inactivated s9) it was 79 ± 11%; in data set [4] (10 μM, s9), 83 ± 2%; in data set [4] (10 μM, s9 & glucuronidase), 72 ± 5%; in data set [4] (10 μM, s9 & sulfatase), 73 ± 9%. Moreover, the “Percentage … parent compound” value in data set [4] (setting [7]) was determined as 71 ± 6%; in data set [4] (10 μM, unprocessed spike), 89 ± 1%. For the same compound, the “% Depletion” value came to 9% in data set [4] (1 μM, Abiotic Control); 12% in data set [4] (1 μM, Heat-inactivated s9); 43% in data set [4] (1 μM, s9 & glucuronidase); 39% in data set [4] (setting [6]); 39% in data set [4] (1 μM, s9 & sulfatase); 41% in data set [4] (1 μM, s9). The “% Depletion” value in data set [4] (10 μM, Abiotic Control) was determined as 8%; in data set [4] (10 μM, Heat-inactivated s9), 12%; in data set [4] (10 μM, s9 & glucuronidase), 23%; in data set [4] (setting [7]) it was 25%; in data set [4] (10 μM, s9 & sulfatase), 23%; in data set [4] (10 μM, s9), 12%. Also, the “Percentage … Total” value in data set [4] (1 μM, unprocessed spike) came to 100 ± 4%. Also, in data set [4] (human, pH 7.4), the “Percent depletion lower than that of TPHP” value was 30–45%. Besides, in data set [5] (2 μM, 100-min incubation), the “Parent converted to DPHP” value is listed as 41%.

In the case of `CC(C)c1ccccc1OP(=O)(Oc1ccccc1C(C)C)Oc1ccccc1C(C)C` [T2IPPP], the “DPHP formation following incubation” value in data set [5] (ref Strobel et al., 2018) is recorded as “not detected”.

On to `C=C(C)c1ccccc1OP(=O)(Oc1ccccc1)Oc1ccccc1` [mono-(o-isopropenylphenyl)-diphenyl phosphate], for which, in data set [2], the “Detection in rabbit bile” value is reported as “detected”.

Take “hydroxy-o-isopropylphenyl diphenyl phosphate [Hydroxylated 2IPPDPP]”: the “Detection in human urine samples” value in data set [1] is given as “not detected”.

On to “mono-isopropenylphenyl diphenyl phosphate”, for which the “Detection in human urine samples” value in data set [1] worked out at 1.

These data come from PMC7508416 (Chemical research in toxicology, 2020).
